These results are taken from patent US20250213555A1, “SUBSTITUTED TETRAHYDROFURAN ANALOGS AS MODULATORS OF SODIUM CHANNELS” (VERTEX PHARMACEUTICALS INCORPORATED, priority 2021, published 2025).

A value given as a limit tells only on which side of the number the result lay.

Sequence of human Nav 1.8 (Q9Y5Y9 126-399 limits assumed): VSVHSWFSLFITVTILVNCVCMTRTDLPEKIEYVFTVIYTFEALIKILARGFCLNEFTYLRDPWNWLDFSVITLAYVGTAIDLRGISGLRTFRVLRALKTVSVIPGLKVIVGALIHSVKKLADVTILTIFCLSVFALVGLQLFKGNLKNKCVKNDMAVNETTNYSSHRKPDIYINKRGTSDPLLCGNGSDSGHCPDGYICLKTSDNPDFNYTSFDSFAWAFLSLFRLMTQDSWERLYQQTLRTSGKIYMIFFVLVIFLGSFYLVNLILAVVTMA
Sequence of human Nav 1.8 (Q9Y5Y9 660-890 limits assumed): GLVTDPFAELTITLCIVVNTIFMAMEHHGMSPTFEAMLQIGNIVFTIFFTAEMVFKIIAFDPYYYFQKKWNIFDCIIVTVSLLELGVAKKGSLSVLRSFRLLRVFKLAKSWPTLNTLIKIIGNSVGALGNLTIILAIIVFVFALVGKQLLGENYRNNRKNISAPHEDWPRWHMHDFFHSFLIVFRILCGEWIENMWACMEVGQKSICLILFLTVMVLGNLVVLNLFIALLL
Sequence of human Nav 1.8 (Q9Y5Y9 1148-1722 limits assumed): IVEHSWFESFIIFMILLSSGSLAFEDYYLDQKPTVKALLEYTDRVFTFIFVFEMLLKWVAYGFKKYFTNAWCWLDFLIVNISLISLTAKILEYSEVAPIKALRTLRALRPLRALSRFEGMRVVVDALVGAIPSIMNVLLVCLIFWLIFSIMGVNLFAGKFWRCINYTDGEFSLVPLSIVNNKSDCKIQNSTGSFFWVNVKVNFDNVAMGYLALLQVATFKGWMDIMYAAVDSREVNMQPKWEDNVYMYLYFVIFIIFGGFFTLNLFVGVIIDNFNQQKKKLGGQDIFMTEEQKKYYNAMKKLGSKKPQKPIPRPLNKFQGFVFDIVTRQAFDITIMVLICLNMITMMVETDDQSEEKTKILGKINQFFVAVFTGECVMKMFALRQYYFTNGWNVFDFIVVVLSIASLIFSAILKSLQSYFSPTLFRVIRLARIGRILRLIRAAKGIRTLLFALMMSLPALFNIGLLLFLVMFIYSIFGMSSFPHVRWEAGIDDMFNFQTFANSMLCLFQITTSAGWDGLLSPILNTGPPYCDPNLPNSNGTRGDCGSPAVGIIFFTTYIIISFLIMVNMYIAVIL

The target in the assay is human Nav 1.8 (Homo sapiens, UniProt Q9Y5Y9). Kind of assay: E-VIPR assay detecting and measuring Nav inhibition properties. The format is cell-based. The following applies: HEK cells expressing a truncated form of human Nav 1.8; compound numbers without "*" (not marked as run in the presence of human serum); read-out: measured IC50 value in the E-VIPR Assay. In outline:
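Nav inhibition was read by E-VIPR: cells were electrically stimulated while coumarin/oxonol FRET emissions were recorded. Cells were HEK expressing a truncated human Nav 1.8 and co-transduced with KIR2.1, and were assayed in 25% final human serum.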
One may read the IC50 as the concentration needed to halve the response being measured. Regarding `C[C@H]1[C@@H](c2ccc(F)c(F)c2OCCC(C)(C)C#N)[C@H](C(=O)Nc2ccnc(C(N)=O)c2)O[C@@]1(C)C(F)(F)F` [Compound 74, 4-((2R,3S,4S,5R)-3-(2-(3-cyano-3-methylbutoxy)-3,4-difluorophenyl)-4,5-dimethyl-5-(trifluoromethyl)tetrahydrofuran-2-carboxamido)picolinamide], the IC50 is 10 to 100 nM.
As to `C[C@H]1[C@@H](c2ccc(F)c(F)c2OCCN[C@@H]2CCOC2)[C@H](C(=O)Nc2ccnc(C(N)=O)c2)O[C@@]1(C)C(F)(F)F` [Compound 116, 4-((2R,3S,4S,5R)-3-(3,4-difluoro-2-(2-(((R)-tetrahydrofuran-3-yl)amino)ethoxy)phenyl)-4,5-dimethyl-5-(trifluoromethyl)tetrahydrofuran-2-carboxamido)picolinamide], the IC50 lay in the range of 10 to 100 nM.
On to `COCC(CO)COc1c([C@H]2[C@H](C(=O)Nc3ccnc(C(N)=O)c3)O[C@@](C)(C(F)(F)F)[C@H]2C)ccc(F)c1F` (stereo partly drawn) [Compound 155, 4-((2R,3S,4S,5R)-3-(3,4-difluoro-2-(3-hydroxy-2-(methoxymethyl)propoxy)phenyl)-4,5-dimethyl-5-(trifluoromethyl)tetrahydrofuran-2-carboxamido) picolinamide], for which the IC50 lay within 10 to 100 nM.
The result for `COc1c([C@H]2[C@H](C(=O)Nc3ccnc(C(=O)N4C[C@@H](N)[C@H](OC)C4)c3)O[C@@](C)(C(F)(F)F)[C@H]2C)ccc(F)c1F` [Compound 263, (2R,3S,4S,5R)-N-(2-((3R,4R)-3-amino-4-methoxypyrrolidine-1-carbonyl)pyridin-4-yl)-3-(3,4-difluoro-2-methoxyphenyl)-4,5-dimethyl-5-(trifluoromethyl)tetrahydrofuran-2-carboxamide] reads less than 10 nM; that for `CC(COc1c([C@H]2[C@H](C(=O)Nc3ccnc(C(N)=O)c3)O[C@@](C)(C(F)(F)F)[C@H]2C)cccc1C(F)(F)F)=NO` [Compound 196, 4-((2R,3S,4S,5R)-3-(2-(2-(hydroxyimino)propoxy)-3-(trifluoromethyl)phenyl)-4,5-dimethyl-5-(trifluoromethyl)tetrahydrofuran-2-carboxamido)picolinamide], less than 10 nM.
The result for `COC1(C)CN(CCOc2c([C@H]3[C@H](C(=O)Nc4ccnc(C(N)=O)c4)O[C@@](C)(C(F)(F)F)[C@H]3C)ccc(F)c2F)C1` [Compound 48, 4-((2R,3S,4S,5R)-3-(3,4-difluoro-2-(2-(3-methoxy-3-methylazetidin-1-yl)ethoxy)phenyl)-4,5-dimethyl-5-(trifluoromethyl)tetrahydrofuran-2-carboxamido)picolinamide] reads 10 to 100 nM; that for `C[C@H]1[C@@H](c2ccc(F)c(F)c2OCCc2cncn2C)[C@H](C(=O)Nc2ccnc(C(N)=O)c2)O[C@@]1(C)C(F)(F)F` [Compound 86, 4-((2R,3S,4S,5R)-3-(3,4-difluoro-2-(2-(1-methyl-1H-imidazol-5-yl)ethoxy)phenyl)-4,5-dimethyl-5-(trifluoromethyl)tetrahydrofuran-2-carboxamido)picolinamide], less than 10 nM.
Take `COCCOc1c([C@H]2[C@H](C(=O)Nc3ccnc(C(N)=O)n3)O[C@@](C)(C(F)(F)F)[C@H]2C)ccc(F)c1C` (single isomer, unassigned) [Compound 3]: the IC50 is less than 10 nM.
Take `COCc1c([C@@H]2[C@@H](C(=O)Nc3ccnc(C(N)=O)c3)O[C@](C)(C(F)(F)F)[C@@H]2C)ccc(F)c1F` (single isomer, unassigned) [Compound 146]: the IC50 is no less than 1000 nM.
For the compound `COc1c([C@H]2[C@H](C(=O)Nc3ccnc(C(=O)N4CC[C@H](O)C4)c3)O[C@@](C)(C(F)(F)F)[C@H]2C)ccc(F)c1F` [Compound 219, (2R,3S,4S,5R)-3-(3,4-difluoro-2-methoxyphenyl)-N-(2-((S)-3-hydroxypyrrolidine-1-carbonyl)pyridin-4-yl)-4,5-dimethyl-5-(trifluoromethyl)tetrahydrofuran-2-carboxamide], the IC50 was less than 10 nM.
